Laboratory results reported in PubChem BioAssay (NCI).
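Where inhibition never reached the appropriate level, the endpoint shown equals the highest concentration tested. Otherwise, values were interpolated linearly from a five-concentration, 48-hour dose response in 96-well plates. Here, GI50 denotes the concentration required for 50% inhibition of growth. TGI denotes the concentration required for complete inhibition of growth.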

Experiments:
Test in all cases: NCI-60 cell line screen, 48 h
NCI-H522 lung = system: NCI-H522 lung
KM12 colon = system: KM12 colon
OVCAR-4 ovarian = system: OVCAR-4 ovarian
786-0 renal = system: 786-0 renal
HT29 colon = system: HT29 colon
RXF 393 renal = system: RXF 393 renal
LOX IMVI melanoma = system: LOX IMVI melanoma
HCT-15 colon = system: HCT-15 colon
T-47D breast = system: T-47D breast
HS 578T breast = system: HS 578T breast

Compound: C=C/C=C(\NC(=O)C(Cl)(Cl)Cl)[Si](C)(C)C
- TGI (NCI-H522 lung): > 100 µM
- TGI (KM12 colon): > 100 µM
- TGI (OVCAR-4 ovarian): > 100 µM
- TGI (786-0 renal): > 100 µM
- TGI (HT29 colon): > 100 µM
- TGI (RXF 393 renal): > 100 µM
- TGI (LOX IMVI melanoma): > 100 µM
- TGI (HCT-15 colon): > 100 µM

Compound: CCCCCCCC/C=C/CCCCCCCCC1=NCCN1CCO
- GI50 (NCI-H522 lung): 6.34 µM
- TGI (NCI-H522 lung): 25.9 µM
- GI50 (KM12 colon): 2.71 µM
- TGI (KM12 colon): 7.64 µM
- GI50 (T-47D breast): 2.96 µM
- TGI (T-47D breast): 9.96 µM
- GI50 (OVCAR-4 ovarian): 7 µM
- TGI (OVCAR-4 ovarian): 30.7 µM
- GI50 (786-0 renal): 5.49 µM
- TGI (786-0 renal): 28 µM
- GI50 (HT29 colon): 2.16 µM
- TGI (HT29 colon): 5.21 µM
- GI50 (HS 578T breast): 2.37 µM
- TGI (HS 578T breast): 7.68 µM
- GI50 (RXF 393 renal): 3.88 µM
- TGI (RXF 393 renal): 19.6 µM
- GI50 (HCT-15 colon): 2.42 µM
- TGI (HCT-15 colon): 7.58 µM

Compound: COc1cc2c(cc1OC)-c1cc3cc(OC)c(OC)cc3n1CC2
- TGI (NCI-H522 lung): > 100 µM
- TGI (KM12 colon): > 100 µM
- TGI (OVCAR-4 ovarian): > 100 µM
- TGI (786-0 renal): 66.6 µM
- TGI (HT29 colon): 56.3 µM

Compound: O=S(O)CCCCCSSCCCCSSCCCCCS(=O)O
- TGI (NCI-H522 lung): > 100 µM
- TGI (KM12 colon): > 100 µM
- TGI (OVCAR-4 ovarian): > 100 µM
- TGI (786-0 renal): > 100 µM
- TGI (HT29 colon): > 100 µM
- TGI (RXF 393 renal): > 100 µM
- TGI (LOX IMVI melanoma): > 100 µM
- TGI (HCT-15 colon): > 100 µM

Compound: O=C(CC1(O)C(=O)Nc2ccccc21)c1ccccc1Cl (centres undefined)
- TGI (NCI-H522 lung): > 100 µM
- TGI (OVCAR-4 ovarian): > 100 µM
- TGI (786-0 renal): > 100 µM
- TGI (HT29 colon): > 100 µM
- TGI (RXF 393 renal): > 100 µM
- TGI (LOX IMVI melanoma): > 100 µM
- TGI (HCT-15 colon): > 100 µM

Compound: O=C(OCc1ccccc1)N1CCN(/[N+]([O-])=N/Oc2ccc([N+](=O)[O-])cc2[N+](=O)[O-])CC1
- GI50 (NCI-H522 lung): 3.66 µM
- TGI (NCI-H522 lung): > 100 µM
- GI50 (KM12 colon): 8.66 µM
- TGI (KM12 colon): 24.2 µM
- GI50 (786-0 renal): 2.45 µM
- TGI (786-0 renal): 6.97 µM
- GI50 (HT29 colon): 10.4 µM
- TGI (HT29 colon): > 100 µM
- GI50 (HS 578T breast): 32.4 µM
- TGI (HS 578T breast): 97.6 µM
- GI50 (RXF 393 renal): 29.2 µM
- TGI (RXF 393 renal): 56.5 µM
- GI50 (HCT-15 colon): 4.19 µM
- TGI (HCT-15 colon): 52.6 µM

Compound: CC1=CC(=O)CCC2(C)C1CC[C@@H]2OC=O (some centres undefined)
- TGI (NCI-H522 lung): > 100 µM
- TGI (KM12 colon): > 100 µM
- TGI (OVCAR-4 ovarian): > 100 µM
- TGI (786-0 renal): > 100 µM
- TGI (HT29 colon): > 100 µM
- TGI (RXF 393 renal): > 100 µM
- TGI (LOX IMVI melanoma): > 100 µM

Compound: Cc1ccc(-c2nc(SCC(=O)O)n[nH]2)cc1
- TGI (NCI-H522 lung): > 100 µM
- TGI (KM12 colon): > 100 µM
- TGI (OVCAR-4 ovarian): > 100 µM
- TGI (786-0 renal): > 100 µM
- TGI (HT29 colon): > 100 µM
- TGI (HCT-15 colon): > 100 µM

Compound: COc1cc(C(=O)/C=C/c2cc(C(=O)c3cc(OC)c(OC)c(OC)c3)ccc2OC)ccc1N
- GI50 (KM12 colon): 0.552 µM
- TGI (KM12 colon): 5.37 µM
- GI50 (OVCAR-4 ovarian): 0.982 µM
- TGI (OVCAR-4 ovarian): > 100 µM
- GI50 (786-0 renal): 1.54 µM
- TGI (786-0 renal): 4.08 µM
- GI50 (HT29 colon): 0.422 µM
- TGI (HT29 colon): 1.56 µM
- GI50 (HS 578T breast): 1.39 µM
- TGI (HS 578T breast): > 100 µM
- GI50 (LOX IMVI melanoma): 0.74 µM
- TGI (LOX IMVI melanoma): 2.03 µM
- GI50 (HCT-15 colon): 0.37 µM
- TGI (HCT-15 colon): 2.12 µM

Compound: CN(C)c1ccc(N=Cc2c([O-])ccc3ccccc23)cc1.[C-]#[O+].[C-]#[O+].[Ir]
- GI50 (NCI-H522 lung): 5.7 µM
- TGI (NCI-H522 lung): 18.6 µM
- GI50 (KM12 colon): 18 µM
- TGI (KM12 colon): 37.7 µM
- GI50 (OVCAR-4 ovarian): 12.2 µM
- TGI (OVCAR-4 ovarian): 26.1 µM
- GI50 (786-0 renal): 25.1 µM
- TGI (786-0 renal): 65.1 µM
- GI50 (HT29 colon): 19.2 µM
- TGI (HT29 colon): 40.7 µM
- GI50 (LOX IMVI melanoma): 15.4 µM
- TGI (LOX IMVI melanoma): 30.4 µM

Compound: CC/C=C1\N=C(c2ccc(Cl)cc2)OC1=O
- TGI (NCI-H522 lung): > 100 µM
- TGI (KM12 colon): > 100 µM
- TGI (OVCAR-4 ovarian): > 100 µM
- TGI (786-0 renal): > 100 µM
- TGI (HT29 colon): > 100 µM
- TGI (RXF 393 renal): > 100 µM
- TGI (LOX IMVI melanoma): > 100 µM
- TGI (HCT-15 colon): > 100 µM

Compound: CC(C)(C)NN=C1C(C)(C)C(=NNC(C)(C)C)C1(C)C
- TGI (NCI-H522 lung): > 100 µM
- TGI (KM12 colon): > 100 µM
- TGI (OVCAR-4 ovarian): > 100 µM
- TGI (786-0 renal): > 100 µM
- TGI (HT29 colon): > 100 µM
- TGI (RXF 393 renal): > 100 µM
- TGI (LOX IMVI melanoma): > 100 µM
- TGI (HCT-15 colon): > 100 µM

Compound: Cn1c2c(c3ccccc31)C1CCCCC1C1C(=O)NC(=O)C21 (centres undefined)
- TGI (KM12 colon): > 100 µM
- TGI (OVCAR-4 ovarian): > 100 µM
- TGI (786-0 renal): > 100 µM
- TGI (HT29 colon): > 100 µM
- TGI (RXF 393 renal): > 100 µM
- TGI (LOX IMVI melanoma): > 100 µM
- TGI (HCT-15 colon): > 100 µM

Compound: COc1cccc(C2C(C#N)=C(N)Oc3cc(N)ccc32)c1 (centres undefined)
- GI50 (NCI-H522 lung): 0.242 µM
- TGI (NCI-H522 lung): 0.771 µM
- GI50 (KM12 colon): 0.442 µM
- TGI (KM12 colon): 45.9 µM
- GI50 (OVCAR-4 ovarian): 5.14 µM
- TGI (OVCAR-4 ovarian): > 100 µM
- GI50 (786-0 renal): 0.632 µM
- TGI (786-0 renal): > 100 µM
- GI50 (HT29 colon): 0.36 µM
- TGI (HT29 colon): 5.03 µM
- GI50 (HS 578T breast): 0.314 µM
- TGI (HS 578T breast): > 100 µM
- GI50 (LOX IMVI melanoma): 0.506 µM
- TGI (LOX IMVI melanoma): > 100 µM
- GI50 (HCT-15 colon): 0.385 µM
- TGI (HCT-15 colon): > 100 µM

Compound: Cc1ccc(NC(=O)NC(=O)c2ccc([N+](=O)[O-])cc2[N+](=O)[O-])cc1Oc1ncc(Cl)cn1
- TGI (NCI-H522 lung): 0.603 µM
- TGI (KM12 colon): 6.83 µM
- TGI (T-47D breast): 40.6 µM
- TGI (OVCAR-4 ovarian): 26 µM
- TGI (786-0 renal): 13.8 µM
- TGI (HT29 colon): 2.57 µM
- TGI (HS 578T breast): 10.8 µM
- TGI (LOX IMVI melanoma): 11.9 µM
- TGI (HCT-15 colon): 11.2 µM

Compound: C[C@]12CCC[C@H](Cl)C1(O)C[C@H](C(=O)O)CC2 (some centres undefined)
- TGI (NCI-H522 lung): > 100 µM
- TGI (KM12 colon): > 100 µM
- TGI (OVCAR-4 ovarian): > 100 µM
- TGI (786-0 renal): > 100 µM
- TGI (HT29 colon): > 100 µM
- TGI (RXF 393 renal): > 100 µM
- TGI (LOX IMVI melanoma): > 100 µM
- TGI (HCT-15 colon): > 100 µM

Compound: COc1ccc(C(=O)c2ccc(OC)c(OC)c2OC)cc1
- GI50 (NCI-H522 lung): 1.81 µM
- TGI (NCI-H522 lung): 6.03 µM
- GI50 (KM12 colon): 0.492 µM
- TGI (KM12 colon): 25.2 µM
- GI50 (T-47D breast): 5.37 µM
- TGI (T-47D breast): > 100 µM
- GI50 (OVCAR-4 ovarian): 7.08 µM
- TGI (OVCAR-4 ovarian): > 100 µM
- GI50 (786-0 renal): 9.85 µM
- TGI (786-0 renal): > 100 µM
- GI50 (HT29 colon): 0.465 µM
- TGI (HT29 colon): 33.5 µM
- GI50 (HS 578T breast): 0.915 µM
- TGI (HS 578T breast): 3.65 µM
- GI50 (LOX IMVI melanoma): 6.63 µM
- TGI (LOX IMVI melanoma): > 100 µM
- GI50 (HCT-15 colon): 0.596 µM
- TGI (HCT-15 colon): > 100 µM

Compound: CCOC(=O)C(=O)Nc1c(F)cc(F)cc1Br
- TGI (KM12 colon): > 100 µM
- TGI (OVCAR-4 ovarian): > 100 µM
- TGI (786-0 renal): > 100 µM
- TGI (HT29 colon): > 100 µM
- TGI (RXF 393 renal): > 100 µM
- TGI (LOX IMVI melanoma): > 100 µM
- TGI (HCT-15 colon): > 100 µM

Compound: CC(=O)c1ccc(NC(=O)CSc2nnc(-c3cc(-c4ccc(C)cc4)nc4ccccc34)o2)cc1
- GI50 (NCI-H522 lung): 2.39 µM
- TGI (NCI-H522 lung): 9.06 µM
- GI50 (786-0 renal): 1.61 µM
- TGI (786-0 renal): 3.51 µM
- GI50 (HS 578T breast): 4.06 µM
- TGI (HS 578T breast): 39.4 µM
- GI50 (RXF 393 renal): 2.01 µM
- TGI (RXF 393 renal): 4.26 µM
- GI50 (LOX IMVI melanoma): 2.64 µM
- TGI (LOX IMVI melanoma): 9.09 µM
- GI50 (HCT-15 colon): 4.95 µM
- TGI (HCT-15 colon): > 100 µM

Compound: CN1C2(c3ccccc3)c3c(-c4ccccc4)sc(-c4ccccc4)c3C1(c1ccccc1)C1C(=O)N(c3ccccc3)C(=O)C12 (centres undefined)
- TGI (NCI-H522 lung): > 100 µM
- TGI (KM12 colon): > 100 µM
- TGI (OVCAR-4 ovarian): > 100 µM
- TGI (786-0 renal): > 100 µM
- TGI (HT29 colon): > 100 µM
- TGI (RXF 393 renal): > 100 µM
- TGI (LOX IMVI melanoma): > 100 µM
